The values below are quoted from earlier work in patent US20030129616A1, “Use of a mutation in the gene for the beta3-subunit of human g-protein” (priority 2000, published 2003).

The data set relates to bladder tumor cells.

With pertussis toxin, the “migration of bladder tumor cells” value was “greatly inhibited”.
